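96-well plates; 48 h exposure; 5 concentrations. Endpoints by linear interpolation between flanking doses. Not reached: highest tested concentration assigned. TGI denotes the concentration required for complete inhibition of growth.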
How the values were obtained:
Test in all cases: NCI-60 cell line screen, 48 h
HCT-15 colon = system: HCT-15 colon
NCI-H460 lung = system: NCI-H460 lung
OVCAR-4 ovarian = system: OVCAR-4 ovarian
MDA-N = system: MDA-N
SNB-19 CNS = system: SNB-19 CNS
U251 CNS = system: U251 CNS
SN12C renal = system: SN12C renal
MDA-MB-435 = system: MDA-MB-435
UO-31 renal = system: UO-31 renal
SF-268 CNS = system: SF-268 CNS
KM12 colon = system: KM12 colon
NCI-H226 lung = system: NCI-H226 lung
SK-MEL-2 melanoma = system: SK-MEL-2 melanoma
LOX IMVI melanoma = system: LOX IMVI melanoma
OVCAR-5 ovarian = system: OVCAR-5 ovarian
T-47D breast = system: T-47D breast
NCI-H522 lung = system: NCI-H522 lung
MALME-3M melanoma = system: MALME-3M melanoma
SNB-75 CNS = system: SNB-75 CNS
SK-MEL-28 melanoma = system: SK-MEL-28 melanoma
HS 578T breast = system: HS 578T breast
HOP-62 NSCLC = system: HOP-62 NSCLC
A549 NSCLC = system: A549 NSCLC
ACHN renal = system: ACHN renal
DU-145 prostate = system: DU-145 prostate
UACC-62 melanoma = system: UACC-62 melanoma
CCRF-CEM leukemia = system: CCRF-CEM leukemia
SF-295 CNS = system: SF-295 CNS
UACC-257 melanoma = system: UACC-257 melanoma
786-0 renal = system: 786-0 renal
CAKI-1 renal = system: CAKI-1 renal
SK-OV-3 ovarian = system: SK-OV-3 ovarian
EKVX NSCLC = system: EKVX NSCLC
HCT-116 colon = system: HCT-116 colon
HCC-2998 colon = system: HCC-2998 colon
RPMI-8226 leukemia = system: RPMI-8226 leukemia
COLO 205 colon = system: COLO 205 colon
HT29 colon = system: HT29 colon
OVCAR-8 ovarian = system: OVCAR-8 ovarian
BT-549 breast = system: BT-549 breast
OVCAR-3 ovarian = system: OVCAR-3 ovarian
K-562 leukemia = system: K-562 leukemia
HOP-92 NSCLC = system: HOP-92 NSCLC
MOLT-4 leukemia = system: MOLT-4 leukemia
SK-MEL-5 melanoma = system: SK-MEL-5 melanoma
IGROV1 ovarian = system: IGROV1 ovarian
M14 melanoma = system: M14 melanoma
SW-620 colon = system: SW-620 colon
PC-3 prostate = system: PC-3 prostate
MDA-MB-231 breast = system: MDA-MB-231 breast
SR leukemia = system: SR leukemia
NCI/ADR-RES ovarian = system: NCI/ADR-RES ovarian
NCI-H23 lung = system: NCI-H23 lung
TK-10 renal = system: TK-10 renal
A498 renal = system: A498 renal
SF-539 CNS = system: SF-539 CNS
MCF7 breast = system: MCF7 breast
RXF 393 renal = system: RXF 393 renal
HL-60(TB) leukemia = system: HL-60(TB) leukemia

CCN(CC)CCn1ncc2ccc3c(c(=O)c4cccnc4n3CCN(CC)CC)c21 showed a TGI (HCT-15 colon) of 6 µM, a TGI (NCI-H460 lung) of 2.45 µM and a TGI (OVCAR-4 ovarian) of 2.87 µM. It also gave a TGI (MDA-N) of 2.15 µM, a TGI (SNB-19 CNS) of 9.97 µM and a TGI (U251 CNS) of 6.82 µM. For the same molecule, the TGI (SN12C renal) was 8.15 µM, the TGI (MDA-MB-435) was 1.94 µM and the TGI (UO-31 renal) was > 8.52 µM. The TGI (SF-268 CNS) was 4.66 µM, the TGI (KM12 colon) was 4.01 µM and the TGI (NCI-H226 lung) was 5.44 µM. The TGI (SK-MEL-2 melanoma) was 3.51 µM, the TGI (LOX IMVI melanoma) was > 6.79 µM and the TGI (OVCAR-5 ovarian) was > 7.07 µM. The TGI (T-47D breast) was > 9.48 µM, the TGI (NCI-H522 lung) was 2.35 µM and the TGI (MALME-3M melanoma) was 3.32 µM. The TGI (SNB-75 CNS) was 2.81 µM, the TGI (SK-MEL-28 melanoma) was 4.01 µM and the TGI (HS 578T breast) was > 6 µM. The TGI (HOP-62 NSCLC) was 3.38 µM, the TGI (A549 NSCLC) was > 10 µM and the TGI (ACHN renal) was > 10 µM. For the same molecule, the TGI (DU-145 prostate) was > 8.66 µM, the TGI (UACC-62 melanoma) was 5.15 µM and the TGI (CCRF-CEM leukemia) was 1.82 µM. For the same molecule, the TGI (SF-295 CNS) was > 9.52 µM, the TGI (UACC-257 melanoma) was 3.95 µM and the TGI (786-0 renal) was 4.6 µM. For the same molecule, the TGI (CAKI-1 renal) was 9.71 µM, the TGI (SK-OV-3 ovarian) was > 9.46 µM and the TGI (EKVX NSCLC) was 6.83 µM. For the same molecule, the TGI (HCT-116 colon) was > 5.81 µM, the TGI (HCC-2998 colon) was 2.14 µM and the TGI (RPMI-8226 leukemia) was 4.21 µM. The TGI (COLO 205 colon) was 1.46 µM, the TGI (HT29 colon) was 3.13 µM and the TGI (OVCAR-8 ovarian) was 3.63 µM. It also gave a TGI (BT-549 breast) of 5.11 µM, a TGI (OVCAR-3 ovarian) of 4.12 µM and a TGI (K-562 leukemia) of 3.33 µM. The TGI (HOP-92 NSCLC) was 4.37 µM, the TGI (MOLT-4 leukemia) was 1.43 µM and the TGI (SK-MEL-5 melanoma) was 2.38 µM. For the same molecule, the TGI (IGROV1 ovarian) was 4.22 µM, the TGI (M14 melanoma) was 2.79 µM and the TGI (SW-620 colon) was > 6.66 µM. For the same molecule, the TGI (PC-3 prostate) was 3.85 µM, the TGI (MDA-MB-231 breast) was 4.07 µM and the TGI (SR leukemia) was 1.3 µM. The TGI (NCI/ADR-RES ovarian) was 4.86 µM, the TGI (NCI-H23 lung) was 3.05 µM and the TGI (TK-10 renal) was > 10 µM. The TGI (A498 renal) was 2.24 µM, the TGI (SF-539 CNS) was 1.95 µM and the TGI (MCF7 breast) was 4.62 µM. The TGI (RXF 393 renal) was 2.8 µM and the TGI (HL-60(TB) leukemia) was 2.83 µM.

For CN1CN(c2ccccc2)C2(CCNCC2)C1=O, the TGI (HCT-15 colon) was > 100 µM, the TGI (NCI-H460 lung) was > 100 µM and the TGI (OVCAR-4 ovarian) was > 100 µM. For the same molecule, the TGI (MDA-N) was > 100 µM, the TGI (SNB-19 CNS) was > 100 µM and the TGI (U251 CNS) was > 100 µM. The TGI (SN12C renal) was > 100 µM, the TGI (MDA-MB-435) was > 100 µM and the TGI (UO-31 renal) was > 100 µM. For the same molecule, the TGI (SF-268 CNS) was > 100 µM, the TGI (KM12 colon) was > 100 µM and the TGI (NCI-H226 lung) was > 100 µM. The TGI (SK-MEL-2 melanoma) was > 100 µM, the TGI (LOX IMVI melanoma) was > 100 µM and the TGI (OVCAR-5 ovarian) was > 100 µM. The TGI (T-47D breast) was > 100 µM, the TGI (NCI-H522 lung) was > 100 µM and the TGI (MALME-3M melanoma) was > 100 µM. The TGI (SNB-75 CNS) was > 100 µM, the TGI (SK-MEL-28 melanoma) was > 100 µM and the TGI (HS 578T breast) was > 100 µM. The TGI (HOP-62 NSCLC) was > 100 µM, the TGI (A549 NSCLC) was > 100 µM and the TGI (ACHN renal) was > 100 µM. The TGI (DU-145 prostate) was > 100 µM, the TGI (UACC-62 melanoma) was > 100 µM and the TGI (CCRF-CEM leukemia) was > 100 µM. The TGI (SF-295 CNS) was > 100 µM, the TGI (UACC-257 melanoma) was > 100 µM and the TGI (786-0 renal) was > 100 µM. The TGI (CAKI-1 renal) was > 100 µM, the TGI (SK-OV-3 ovarian) was > 100 µM and the TGI (EKVX NSCLC) was > 100 µM. The TGI (HCT-116 colon) was > 100 µM, the TGI (HCC-2998 colon) was > 100 µM and the TGI (RPMI-8226 leukemia) was > 100 µM. The TGI (COLO 205 colon) was > 100 µM, the TGI (HT29 colon) was > 100 µM and the TGI (OVCAR-8 ovarian) was > 100 µM. The TGI (BT-549 breast) was > 100 µM, the TGI (OVCAR-3 ovarian) was > 100 µM and the TGI (K-562 leukemia) was > 100 µM. The TGI (HOP-92 NSCLC) was > 100 µM, the TGI (MOLT-4 leukemia) was > 100 µM and the TGI (SK-MEL-5 melanoma) was > 100 µM. The TGI (IGROV1 ovarian) was > 100 µM, the TGI (M14 melanoma) was > 100 µM and the TGI (SW-620 colon) was > 100 µM. For the same molecule, the TGI (PC-3 prostate) was > 100 µM, the TGI (MDA-MB-231 breast) was > 100 µM and the TGI (SR leukemia) was > 100 µM. For the same molecule, the TGI (NCI/ADR-RES ovarian) was > 100 µM, the TGI (NCI-H23 lung) was > 100 µM and the TGI (TK-10 renal) was > 100 µM. The TGI (A498 renal) was > 100 µM, the TGI (SF-539 CNS) was > 100 µM and the TGI (MCF7 breast) was > 100 µM. For the same molecule, the TGI (RXF 393 renal) was > 100 µM and the TGI (HL-60(TB) leukemia) was > 100 µM.
